Patent US10322132B2, “Prevention or treatment of uratic or gouty diseases” (SHANTON PHARMA CO., LTD., priority 2015, dated 2019)

Columns and labels:
[1] = system: serum uric acid; experiment: Uric acid-lowering test in monkeys having hyperuricemia (UA subcutaneous injection); type: in vivo, cynomolgus monkeys; parameters: Reduction rate or serum uric acid: concentration or dose not given beside the values; settings: for Content of serum uric acid: Administration group
Protocol: The experiment was conducted by reference to Komoriya K, Osada Y, Hasegawa M, Horiuchi H, Kondo S, Couch R C, Griffin T B. Hypouricemic effect of allopurinol and the novel xanthine oxidase inhibitor TEI-6720 in chimpanzees. Eur J Pharmacol. 1993 Dec. 21; 250(3): 455-60.
In the Model group, three non-naïve cynomolgus monkeys (1 #, 2 # and 3 #) were administered with UA by subcutaneous injection at the nape. Blood was collected from the vein before UA administration and 0.5 h, 1 h, 2 h, 4 h, 6 h and 24 h after UA administration. The blood was left still at room temperature. The serum was collected by centrifugation. The content of serum uric acid was measured.
In the Administration group, three non-naïve cynomolgus monkeys (1 #, 2 # and 3 #) were administered with the test sample by intravenous injection after 2 weeks of clearance. Blood was collected from the vein before administration and 2 h after administration of test sample. Then, the monkeys were administered with UA by subcutaneous injection at the nape and blood was collected from the vein 1 h, 2 h and 4 h after the UA administration. The blood was left still at room temperature. The serum was collected by centrifugation. The content of serum uric acid was measured. Reduction rate of serum uric acid in healthy monkeys administered with test sample=(average uric acid content before administration−average uric acid content 2 h after administration of test sample)/average uric acid content before administration*100%, Reduction rate of serum uric acid in monkeys having hyperuricemia after administration of test sample=(uric acid content after UA administration in the model group−uric acid content after UA administration in the administration group)/uric acid content in the model group*(100%).
That was, the samples were collected before administration, 2 h after administration of test sample and 1 h, 2 h and 4 h after UA administration for determination of the serum uric acid content. The contents of serum uric acid in the model group and the administration group and the reduction rates of serum uric acid were shown in the following Tables 3-1, 3-2 and 3-3, respectively.

[2] = system: IL-1β, IL-6, KC and TNFα; experiment: Air sacculitis (MSU-induced air sacs), cytokines in lavage fluid; settings: for IL-1β / KC / TNF-α: lavage fluid supernatant, mean, n = 8
Protocol: (§1) The sterile MSU crystals were added to 5 mL of sterilized saline before injected into air sacs.
(§2) Male Wistar rats were raised for one week and then randomly divided into 6 groups. Animals were anesthetized and then injected with 24 mL of sterile air in their backs. The animals received the second injection of air 4 days later. On day 7, the rats in the blank group and model group were intragastrically administered with the solvent at a dose of 10 mL/kg; the rats in the dexamethasone group were administered by intraperitoneal injection with dexamethasone at a dose of 5 mg/kg; the rats in the colchicine group were intragastrically administered with colchicine at a dose of 5 mg/kg. […] One hour after administration, the rats in the blank group were injected with 5 mL of saline into the air sacs at the back, and the rats from other groups were injected with 5 mL of MSU crystal suspension (1 mg/mL) into the air sacs at the back. Four hours later, the lavage fluid in the air sacs was taken, and a portion of the lavage fluid was used for cytological analysis. The remaining was centrifuged at 8000 rpm for 15 min, and the supernatant was stored at −80° C. for the detection of cytokines IL-1β, IL-6, KC and TNFα. The test results were shown as mean±SEM and statistically analyzed by t-test.

[3] = system: IFNγ; experiment: ConA-induced IFNγ release; type: in vivo, Male C57BL/6 mice; settings: for inhibition (%): IFN-γ in serum vs model group, 20 mg/kg subcutaneous; for effect on content of IFNγ in the serum of the test mice (in words): compared with the model group; for Content of IFN-γ: serum, 20 mg/kg subcutaneous 30 min before ConA 15 mg/kg tail vein, 3 h after ConA
Protocol: The experiment was conducted by reference to Dalya R. Soondl, Elisa Bjørgo, etc. PI3K p110δ regulates T cell cytokine production during primary and secondary immune responses in mice and humans. Blood. Author manuscript; available in PMC 2013 Mar. 11; and Gabriele Sass, Sonja Heinlein, etc. CYTOKINE EXPRESSION IN THREE MOUSE MODELS OF EXPERIMENTAL HEPATITIS. CYTOKINE, Vol. 19, No. 3 (7 Aug.), 2002: pp 115-120.
The C57BL/6 mice were raised in the SPF-grade animal room for 1 week, and were then randomly divided into the corresponding model group and the administration groups according to the body weight. The […] were administered with ConA by the tail vein injection at a dose of 15 mg/kg 30 min after the administration of the solvent or the test samples by subcutaneous injection at a dose of 20 mg/kg. After the mice were anesthetized with sodium pentobarbital (45 mg/kg by intraperitoneal injection) 3 h after administration of ConA, the blood was collected by cardiac puncture. The blood was placed in the centrifuge tube without anticoagulant and left still at room temperature. One hour later, the blood was centrifuged. The serum was extracted and stored at −80° C. The content of IFNγ (γ-interferon) in the serum was detected by a Mouse IFNγ Elisa

[4] = system: MSU-induced air sacs; experiment: Air sacculitis (MSU-induced air sacs), leukocyte counts in lavage fluid; settings: for Leukocyte count: Basophil / Leukocyte count: Eosinocyte / Leukocyte count: Lymphocyte / Leukocyte count: Monocyte / Leukocyte count: Neutrophil / Total cell count: lavage fluid 4 h after MSU, mean ± SEM, n = 8;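 on all read-outs here: male Wistar rats with dorsal air sacs, dosed 1 h before injecting MSU crystal suspension, compared with saline-injected blank and vehicle-treated model groups, cytological analysis of lavage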
Protocol: as §1, §2

[5] = system: TNF-α; experiment: LPS-induced TNF-α release; type: in vivo, Male BALB/C mice
Protocol: The experiment was conducted by reference to Pascale Gaillard, Isabelle Jeanclaude-Etter, etc. Design and Synthesis of the First Generation of Novel Potent, Selective, and in Vivo Active (Benzothiazol-2-yl)acetonitrile
BALB/C mice were raised in the SPF-grade animal room for 1 week, and were then randomly divided into the corresponding model group and the administration groups according to the body weight. The […] were administered with the solvent or the test samples by subcutaneous injection at a dose of 10 mg/kg. The rats were administered with LPS by intraperitoneal injection at a dose of 15 mg/kg 30 min after the administration of the solvent or the test samples. The mice were anesthetized with sodium pentobarbital (45 mg/kg by intraperitoneal injection) 1 h after LPS administration. The blood was collected by cardiac puncture, and the content of TNF-α (tumor necrosis factor) in plasma was measured with a Mouse TNF-α Elisa Ready-set-go kit.

CCCCCn1c(=O)[nH]c(=O)c2[nH]c(Cl)nc21 [Compound A, 8-chloro-3-pentyl-3,7-dihydro-1H-purine-2,6-dione]
Reduction rate or serum uric acid ([1]; 1 h after UA administration vs model group, animal 1#): 35.5%
Reduction rate or serum uric acid ([1]; 1 h after UA administration vs model group, animal 2#): 26.2%
Reduction rate or serum uric acid ([1]; 1 h after UA administration vs model group, animal 3#): 56.0%
Reduction rate or serum uric acid ([1]; 1 h after UA administration vs model group, mean): 39.2%
Reduction rate or serum uric acid ([1]; 2 h after UA administration vs model group, animal 1#): 67.1%
Reduction rate or serum uric acid ([1]; 2 h after UA administration vs model group, animal 2#): 37.2%
Reduction rate or serum uric acid ([1]; 2 h after UA administration vs model group, animal 3#): 45.5%
Reduction rate or serum uric acid ([1]; 2 h after UA administration vs model group, mean): 49.1%
Reduction rate or serum uric acid ([1]; 2 h after administration of test sample vs before administration (healthy monkeys), animal 1#): 46.4%
Reduction rate or serum uric acid ([1]; 2 h after administration of test sample vs before administration (healthy monkeys), animal 2#): 30.2%
Reduction rate or serum uric acid ([1]; 2 h after administration of test sample vs before administration (healthy monkeys), animal 3#): 1.56%
Reduction rate or serum uric acid ([1]; 2 h after administration of test sample vs before administration (healthy monkeys), mean): 26.1%
Reduction rate or serum uric acid ([1]; 4 h after UA administration vs model group, animal 1#): 64.3%
Reduction rate or serum uric acid ([1]; 4 h after UA administration vs model group, animal 2#): 77.1%
Reduction rate or serum uric acid ([1]; 4 h after UA administration vs model group, animal 3#): 32.6%
Reduction rate or serum uric acid ([1]; 4 h after UA administration vs model group, mean): 58.0%
Content of serum uric acid ([1]; 1 h after UA administration, animal 1#): 75.3 µmol/L
Content of serum uric acid ([1]; 1 h after UA administration, animal 2#): 97.5 µmol/L
Content of serum uric acid ([1]; 1 h after UA administration, animal 3#): 53.1 µmol/L
Content of serum uric acid ([1]; 1 h after UA administration, mean): 75.3 µmol/L
Content of serum uric acid ([1]; 2 h after UA administration, animal 1#): 26.6 µmol/L
Content of serum uric acid ([1]; 2 h after UA administration, animal 2#): 58.0 µmol/L
Content of serum uric acid ([1]; 2 h after UA administration, animal 3#): 37.0 µmol/L
Content of serum uric acid ([1]; 2 h after UA administration, mean): 40.5 µmol/L
Content of serum uric acid ([1]; 4 h after UA administration, animal 1#): 28.4 µmol/L
Content of serum uric acid ([1]; 4 h after UA administration, animal 2#): 12.3 µmol/L
Content of serum uric acid ([1]; 4 h after UA administration, animal 3#): 43.2 µmol/L
Content of serum uric acid ([1]; 4 h after UA administration, mean): 28.0 µmol/L
Content of serum uric acid ([1]; intravenous, 2 h after administration of test sample (before UA), animal 1#): 12.3 µmol/L
Content of serum uric acid ([1]; intravenous, 2 h after administration of test sample (before UA), animal 2#): 37.0 µmol/L
Content of serum uric acid ([1]; intravenous, 2 h after administration of test sample (before UA), animal 3#): 34.6 µmol/L
Content of serum uric acid ([1]; intravenous, 2 h after administration of test sample (before UA), mean): 28.0 µmol/L
effect on content of serum uric acid in the test monkeys (in words) ([1]; compared to the model group (self-comparation)): significantly reduce
IL-1β ([2]; 30 mg/kg intragastric): 79.2 pg/mL
KC ([2]; 30 mg/kg intragastric): 8742.1 pg/mL
TNF-α ([2]; 30 mg/kg intragastric): 29.7 pg/mL
IL-1β ([2]; 100 mg/kg intragastric): 88.6 pg/mL
KC ([2]; 100 mg/kg intragastric): 5757.4 pg/mL
TNF-α ([2]; 100 mg/kg intragastric): 18.7 pg/mL
effect on increase of IL-6, KC and TNFα (in words) ([2]; oral dose of 100 mg/kg): significantly inhibit
inhibition (%) [3]: 38.3%
effect on content of IFNγ in the serum of the test mice (in words) [3]: significantly reduce
Content of IFN-γ [3]: 2025 pg/mL
Leukocyte count: Basophil ([4]; 30 mg/kg intragastric): 0 ± 0 *10^4/air sacs
Leukocyte count: Eosinocyte ([4]; 30 mg/kg intragastric): 5.8 ± 1.2 *10^4/air sacs
Leukocyte count: Lymphocyte ([4]; 30 mg/kg intragastric): 8.1 ± 1.2 *10^4/air sacs
Leukocyte count: Monocyte ([4]; 30 mg/kg intragastric): 174.2 ± 35.4 *10^4/air sacs
Leukocyte count: Neutrophil ([4]; 30 mg/kg intragastric): 18.6 ± 6.4^$ *10^4/air sacs
Total cell count ([4]; 30 mg/kg intragastric): 206.8 ± 42.9^$ *10^4/air sacs
Leukocyte count: Basophil ([4]; 100 mg/kg intragastric): 0 ± 0 *10^4/air sacs
Leukocyte count: Eosinocyte ([4]; 100 mg/kg intragastric): 4.6 ± 1.4 *10^4/air sacs
Leukocyte count: Lymphocyte ([4]; 100 mg/kg intragastric): 8.0 ± 1.9 *10^4/air sacs
Leukocyte count: Monocyte ([4]; 100 mg/kg intragastric): 151.4 ± 24.1 *10^4/air sacs
Leukocyte count: Neutrophil ([4]; 100 mg/kg intragastric): 12.2 ± 3.4^$ *10^4/air sacs
Total cell count ([4]; 100 mg/kg intragastric): 176.2 ± 29.6^$$$ *10^4/air sacs
effect on increase of the total cell count and neutrophil count in the lavage fluid caused by MSU (in words) ([4]; compound A at the oral doses of 30 mg/kg and 100 mg/kg): significantly inhibit

CCCCCn1c(=O)n(C)c(=O)c2[nH]c(Cl)nc21 [Compound D, 8-chloro-1-methyl-3-pentyl-3,7-dihydro-1H-purine-2,6-dione]
inhibition (%) [3]: 35.8%
effect on content of IFNγ in the serum of the test mice (in words) [3]: significantly reduce
Content of IFN-γ [3]: 2108 pg/mL
inhibition (%) ([5]; TNF-α in plasma vs model group, 10 mg/kg subcutaneous): 29.6%
effect on content of TNF-α in the plasma of the test mice (in words) ([5]; compared with the model group): significantly reduce
Content of TNF-α ([5]; plasma, 10 mg/kg subcutaneous 30 min before LPS 15 mg/kg i.p., 1 h after LPS): 1124 pg/mL
